Assay results: PMC12018048, “Intranasal kisspeptin administration rapidly stimulates gonadotropin release in humans” (eBioMedicine, 2025)

System: plasma LH
Assay: Intranasal kisspeptin-54, plasma LH in adult C57BL/6J male mice
Assay type: in vivo, mouse
Details: for Peak plasma LH level / Integrated LH response, AUC: mean ± SEM; for Peak plasma LH level, mean difference vs placebo: two-way ANOVA; for Integrated LH response, AUC: sampling over 70 min
Protocol: Saline (placebo) or kisspeptin-54 were intranasally administered using a customised and unsharpened 2 mm long and 0.3 mm wide hypodermic needle (BD PrecisionGlide™; 30G; ref. 305106). Male mice were restrained and a single volume of 30 μL of the solution was delivered in one randomly chosen nostril with either 0.9% saline or different concentrations of kisspeptin-54 (1, 3, 12.8, 30, or 50 nM; equivalent to 0.001–0.05 nmol/kg). The protocol involved N = 5 mice per group, except concentrations 12.8 nM where N = 6 and 30 nM where N = 7. […] LH levels were assessed using a tail-tip serial blood sampling as previously reported.[64]^,[65] Briefly, samples containing 4 μL of whole blood were collected every 10 min over a 70-min-long period from each animal. The first sampling point was taken as baseline LH level (−5 min), and saline or kisspeptin-54 were administered at timepoint 0 min. Whole blood was collected into Eppendorf tubes pre-loaded with 50 μL of 0.1 M phosphate-buffered saline (PBS)-0.05% Tween, thoroughly mixed, and snap-frozen with dry ice and stored at −80 °C.
LH levels were measured using an established in-house and ultrasensitive mouse LH ELISA method as previously validated.[66] A primary coating antibody (bovine LHβ subunit, 518B7; L. Sibley; University of California, UC Davis, RRID AB_2756886) was used at a 1:1000 dilution in combination with a detection primary antibody (rabbit LH antiserum, AFP240580Rb, RRID AB_2665533; NIDDK- NHPP) used at 1:10,000 dilution, and a secondary horseradish peroxidase-conjugated antibody (goat anti-rabbit; Vector Laboratories, PI-1000, RRID AB_2336198) used at 1:10,000 dilution. The assay standard curve used a mouse LH-RP (AFP5306A, A. F. Parlow, National Hormone and Peptide Program; supplied by Golden West BioSolutions, California, USA; catalogue # TLIA1053.03). The assay sensitivity of this LH ELISA was 0.04 ng/mL, intra-assay coefficient of variation 4.1%, and inter-assay coefficient of variation 7.3%.
Statistical analyses were performed using GraphPad Prism (version 9.4.1). Data are presented as mean ± SEM. Normality of the data was determined using the Shapiro–Wilk test. The analysis considered increment in LH levels when average post-administration values were above significance (P < 0.05) compared to basal levels (−5 min) using repeated measures two-way ANOVA with Fishers least significant difference (LSD) test. Integrated LH response to kisspeptin-54 administration as indicated using the area under the curve (AUC) analysis when all peaks were above baseline values. The difference in AUC between groups was compared by one-way ANOVA with Fisher’s LSD test. In all cases, P < 0.05 was considered statistically significant.

Substance: Kisspeptin-54
- LH AUC, mean difference vs kisspeptin 1 nM (intranasal 3 nM vs 1 nM): 3.6 ng·h/mL
- Time of peak LH level after intranasal administration (intranasal 12.8 nM): 25 min
- LH AUC, mean difference vs kisspeptin 1 nM (intranasal 12.8 nM vs 1 nM): 22.7 ng·h/mL
- LH AUC, mean difference vs kisspeptin 3 nM (intranasal 12.8 nM vs 3 nM): 19.1 ng·h/mL
- LH AUC, mean difference vs placebo (intranasal 12.8 nM vs placebo): 17.2 ng·h/mL
- Peak plasma LH level (intranasal 12.8 nM, at 25 min, N = 6): 1.9 ± 0.4 ng/mL
- Peak plasma LH level, mean difference vs placebo (intranasal 12.8 nM, at 25 min): 1.1 ng/mL
- Time of peak LH level after intranasal administration (intranasal 30 nM): 25 min
- LH AUC, mean difference vs kisspeptin 1 nM (intranasal 30 nM vs 1 nM): 74.2 ng·h/mL
- LH AUC, mean difference vs kisspeptin 3 nM (intranasal 30 nM vs 3 nM): 70.7 ng·h/mL
- LH AUC, mean difference vs kisspeptin 12.8 nM (intranasal 30 nM vs 12.8 nM): 51.6 ng·h/mL
- LH AUC, mean difference vs placebo (intranasal 30 nM vs placebo): 68.7 ng·h/mL
- Peak plasma LH level (intranasal 30 nM, at 25 min, N = 7): 3.6 ± 0.4 ng/mL
- Peak plasma LH level, mean difference vs placebo (intranasal 30 nM, at 25 min): 2.8 ng/mL
- Time of peak LH level after intranasal administration (intranasal 50 nM): 15 min
- LH AUC, mean difference vs kisspeptin 1 nM (intranasal 50 nM vs 1 nM): 92.8 ng·h/mL
- LH AUC, mean difference vs kisspeptin 3 nM (intranasal 50 nM vs 3 nM): 89.3 ng·h/mL
- LH AUC, mean difference vs kisspeptin 12.8 nM (intranasal 50 nM vs 12.8 nM): 70.2 ng·h/mL
- LH AUC, mean difference vs kisspeptin 30 nM (intranasal 50 nM vs 30 nM): 18.6 ng·h/mL
- LH AUC, mean difference vs placebo (intranasal 50 nM vs placebo): 87.3 ng·h/mL
- Peak plasma LH level (intranasal 50 nM, at 15 min, N = 5): 4.0 ± 1.0 ng/mL
- Peak plasma LH level, mean difference vs placebo (intranasal 50 nM, at 15 min): 2.9 ng/mL
- Integrated LH response, AUC (intranasal 30 μL of 1 nM, N = 5): 75.5 ± 6.3 ng·h/mL
- Integrated LH response, AUC (intranasal 30 μL of 3 nM, N = 5): 79.1 ± 5.8 ng·h/mL
- Integrated LH response, AUC (intranasal 30 μL of 12.8 nM, N = 6): 98.2 ± 15.5 ng·h/mL
- Integrated LH response, AUC (intranasal 30 μL of 30 nM, N = 7): 149.7 ± 13.3 ng·h/mL
- Integrated LH response, AUC (intranasal 30 μL of 50 nM, N = 5): 168.3 ± 38.5 ng·h/mL
- Adverse effects leading to pain, distress, or illness (intranasal, first 72-h follow-up period): did not observe any adverse effects
